Data: patent US20140093486A1, “METHOD FOR PREPARING INDUCED PLURIPOTENT STEM CELLS AND ITS APPLICATIONS” (Taipei Veterans General Hospital, priority 2012, published 2014)

Key:
[1] = system: MEFs transfected with OSKM; experiment: efficiency of iPSC generation from OSKM-transfected MEFs (ALP staining); assay type: cell-based, mouse; settings: induced by OSKM, day 21 post-reprogramming
From the text: C57/B6 mice were used in this study and all procedures involving animals were approved by the Animals Committee of the Taipei Veterans General Hospital. Murine iPSCs were generated from mouse embryonic fibroblasts (MEFs) derived from 13.5-day-old embryos of C57/B6 mice. The iPSCs were reprogrammed by the transduction of retroviral vectors encoding four transcription factors (Oct4/Sox2/Klf4/c-Myc; OSKM), or three transcription factors (Oct4/Sox2/Klf4; OSK), as described previously (Li et al., 2011). Total of 12 clones (Re-1 to Re-12; OSKM) were selected and established. The clone of Re-7 iPSCs had been stably passed to more than 100 th passages with high pluripotency. Therefore, Re-7 iPSCs were selected and widely used in this study. Briefly, undifferentiated iPSCs were routinely cultured and expanded on mitotically-inactivated MEFs (50,000 cells/cm 2) in six-well culture plates (BD Technology) in the presence of 0.3% leukemia inhibitory factor in an iPSC medium consisting of Dulbecco's Modified Eagle's Medium (DMEM; Sigma) supplemented with 15% fetal bovine serum (FBS; Invitrogen), […] minimal essential medium (MEM) nonessential amino acids (Sigma), 0.55 mM 2-mercaptoethanol (Gibco), and antibiotics (Invitrogen). Every three to four days, colonies were detached with 0.2% collagenase IV (Invitrogen), dissociated into single cells with 0.025% trypsin (Sigma) and 0.1% chicken serum (Invitrogen) in PBS, and replated onto MEFs. For embryoid body (EB) formation, iPSCs were dissociated into a single cell suspension by 0.25% trypsin-EDTA and plated onto non-adherent culture dishes in DMEM with 15% FBS, […] MEM nonessential amino acids, 0.55 mM 2-mercaptoethanol, and antibiotics at a density of 2×10^6 cells/100 mm plate. After 4 days in floating culture, EBs were transferred onto gelatin-coated plates and maintained in the same medium for 24 h. EBs were then assigned for in vitro differentiation into tridermal lineages as previously described (Li et al., 2011). […]

[2] = system: Mice (C57/B6); experiment: 72-hour survival of repetitive CCl4-injured mice; assay type: in vivo, mouse; settings: repetitive CCl4 at 0, 24 and 48 h; treatment once at 4 h
Method: (§1) Mice (C57/B6, 8 to 10 weeks) were housed in cage and allowed free access to food and water. Mouse was given carbon tetrachloride (CCl4, Sigma) in mineral oil (0.35·μl/g, single dose, i.p.) to induce liver injury. At 4 h post-injury, mice were randomized to receive vehicle (PBS), iPS cells or iHL (2×10^6 cells/in 100 μl PBS) infusions via tail veins. For the time points study, mouse received blood withdrawal (˜100 μl) from facial veins at scheduled time for liver biochemistry. When mouse was sacrificed, blood was drawn from the heart and the liver was harvested and prepared for subsequent experiments including histochemistry, cytokine assay, protein and gene expression analysis. For neutralizing antibody study, mouse was given two doses (0.5 μg/dose, i.p.) of anti-IP-10 antibodies (Abcam, ab9938, Cambridge, UK) at 4 h before and 4 h after injury. For 72 h survival study, mice received repetitive CCl4 injury at 0, 24 and 48 h. The iPS cells (2×10^6 cells/in 100 μl PBS) or recombinant IP10 (rIP10, 0.5 ng) were given once at 4 h and the mortality rate of mice was observed until 72 h post-injury. […]
To evaluate the survival effects of iPS cells and IP-10, the 72-hour survival rates were evaluated in repetitive CCl4-injured mice, to which two additional doses of CCl4 (given at 24 and 48 hours) were given after the first dose. […]

[3] = system: hepatocytes; experiment: viability of CCl4-injured hepatocytes (MTT assay); assay type: cell-based; settings: 0.5 or 5 ng, CCl4 concentration of 1.0 to 2.5 mM, 24 h
Method: Mouse germline-competent iPS cells were provided by Kyoto University (Dr. Shinya Yamanaka) and RIKEN BRC, Japan (Takahashi K et al. (2006) Cell 126:663-676). IPS cells were cultured as previously described (Okita K et al. (2007) Nature 448: 313-317.9). […] For recombinant IP-10 (rIP-10, Peprotech, NC) study, hepatocytes were seeded on 24-well plates at the same density. The rIP-10 (0.5 ng or 5 ng) was given at 4 h post-injury. The viability of hepatocytes was evaluated at 24 h by methyl thiazol tetrazolium (MTT, Sigma) assay.

[4] = system: Mice (C57/B6); experiment: CCl4-induced acute liver injury model; assay type: in vivo, mouse; settings: CCl4-injured mice
Method: as §1, with “h.” for “h. The iPS cells (2×10^6 cells/in 100 μl PBS) or recombinant IP10 (rIP10, 0.5 ng) were given once at 4 h and the mortality rate of mice was observed until 72 h post-injury.”
The paraffin sections of livers were stained by H.E. and photo-taken under microscopy at 40× magnification to evaluate the degree of injury. Necrotic area were determined by measuring five independent fields per liver using a computerized morphometry system (MicroCam, M&T OPTICS, Taiwan) and expressed as percentage of the filed area. […]

| Compound | efficiency of iPSC generation [1] | 72-hour survival rates [2] [%] | viability of injured hepatocytes [3] | degree of liver damage [4] |
| --- | --- | --- | --- | --- |
| NC(=O)c1cccc(N)c1 [3-aminobenzamide] | reduction in the efficiency of iPSC generation |  |  |  |
| CN(C)CC(=O)Nc1ccc2[nH]c(=O)c3ccccc3c2c1 [PJ-34] | reduction in the efficiency of iPSC generation |  |  |  |
| C[C@]1(c2nc3c(C(N)=O)cccc3[nH]2)CCCN1 [ABT-888] | reduction in the efficiency of iPSC generation |  |  |  |
| rIP-10: recombinant IP-10 (Peprotech) |  | 100 | sufficiently increased the viability | significantly reduced |
